The text below walks through data of patent US12076313B2 (CELISTA PHARMACEUTICALS LLC, priority 2020, dated 2024).

The assay is described as follows: Rat topical application study: effectiveness at low dose and topical absorption. Type of assay: in vivo. As to conditions: rats, topical, 20 μg/100 μL.

Experimental: A study was performed in rats with formulations A and B, and a control formulation. Formulation A was IMQ+penetration enhancer (P.E.) at 20 μg/100 μL. […] The Control formulation was IMQ at 20 μg/100 μL in ethanol.

For `CC(C)Cn1cnc2c(N)nc3ccccc3c21` [Imiquimod, 1-(2-methylpropyl)-1H-imidazo[4,5-c]quinolin-4-amine], the “effectiveness at a low dose” value is given as “effective”.
